What was measured:
stromelysin (MMP-3) = biological target: T1, stromelysin (MMP-3) (Homo sapiens, UniProt P08254); assay: Enzyme inhibition of the catalytic domain of human stromelysin (fluorogenic substrate); type: biochemical; settings: 15 min preincubation, pH=6.5, fluorescence 328 nm (ex)/393 nm (em)
T1 construct: enzymatic activity of the catalytic domains of human stromelysin and of neutrophil collagenase; made in house
Experimental: (§1) Preparation and determination of the enzymatic activity of the catalytic domains of human stromelysin and of neutrophil collagenase.
(§2) The enzymes stromelysin (MMP-3) and neutrophil collagenase (MMP-8) were prepared according to Ye et al. (Biochemistry; 31 (1992) pages 11231-11235). To measure the enzyme activity or the enzyme inhibitor action, 70 μl of buffer solution and 10 μl of enzyme solution are incubated for 15 min with 10 μl of a 10% strength (v/v) aqueous dimethyl sulfoxide solution, which optionally contains the enzyme inhibitor. After addition of 10 μl of a 10% strength (v/v) aqueous dimethyl sulfoxide solution which contains 1 mil/L of the substrates, the enzyme reaction is monitored by fluorescence spectroscopy (328 nm (ex)/393 nm(em)). The enzyme activity is shown as the extinction increase/min. The IC50 values listed in Table 2 are determined as those inhibitor concentrations which in each case lead to a 50% inhibition of the enzyme.
(§3) The buffer solution contains 0.05% Brij (Sigma, Deisenhofen, Germany) and also 0.1 mol/L tris/HCl, 0.1 mol/L NaCl, 0.01 mol/L CaCl2 and 0.1 mol/L piperazine-N,N′-bis(2-ethanesulfonic acid) (pH=6.5). The enzyme solution contains 5 μg/ml of one of the enzyme domains prepared according to Ye et al. The substrate solution contains 1 mil/L of the fluorogenic substrate (7-methoxycoumarin-4-yl)acetyl-Pro-Leu-Gly-Leu-3-(2′,4′-dinitrophenyl)-L-2,3-diaminopropionyl-Ala-Arg-NH2 (Bachem, Heidelberg, Germany).

[1] = biological target: T2, neutrophil collagenase (MMP-8) (Homo sapiens, UniProt P22894); assay: Enzyme inhibition of the catalytic domain of neutrophil collagenase (fluorogenic substrate); type: biochemical; settings: 15 min preincubation, pH=6.5, fluorescence 328 nm (ex)/393 nm (em)
T2 construct: enzymatic activity of the catalytic domains of human stromelysin and of neutrophil collagenase; made in house
Experimental: as §1, §2, §3

T1 sequence (P08254 100-272 limits assumed): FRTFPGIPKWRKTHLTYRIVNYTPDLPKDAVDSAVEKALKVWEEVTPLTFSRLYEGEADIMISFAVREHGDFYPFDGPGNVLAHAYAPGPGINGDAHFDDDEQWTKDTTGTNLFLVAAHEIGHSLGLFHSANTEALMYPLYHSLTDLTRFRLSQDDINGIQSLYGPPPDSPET
T2 sequence (P22894 100-262 limits assumed): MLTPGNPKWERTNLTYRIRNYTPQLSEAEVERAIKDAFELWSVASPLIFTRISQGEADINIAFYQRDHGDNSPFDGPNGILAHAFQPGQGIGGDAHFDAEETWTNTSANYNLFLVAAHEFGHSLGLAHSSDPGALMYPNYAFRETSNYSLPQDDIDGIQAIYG

Row | IC50 (stromelysin (MMP-3)) [nM] | IC50 [1] [nM] | melting point [°C] | SMILES
1 | 5 | 2 | 178 | O=C(O)[C@@H](CCCN1C(=O)c2ccccc2C1=O)NS(=O)(=O)c1ccc(-c2ccc(Cl)cc2)cc1 [Example 6, 2-(2R)-(4-Chlorobiphenylsulfonylamino)-5-phthalimidoyl-pentanoic acid]
2 | – | – | 226 to 227 | Cc1cc(C)nc(NCCC[C@H](NS(=O)(=O)c2ccc(-c3ccccc3)cc2)C(=O)O)n1 [Example 169]
3 | 30 | 5 | 168 | O=C(O)C(CCCN1C(=O)c2ccccc2C1=O)NS(=O)(=O)c1ccc(-c2ccccc2)cc1 (racemic) [Example 30]
4 | 20 | 10 | 177 to 179 | Cc1cc(C)nc(NCCC[C@H](NS(=O)(=O)c2ccc(-c3ccc(Cl)cc3)cc2)C(=O)O)n1 [Example 170]
5 | – | – | 69 to 70 | COC(=O)[C@@H](CCCCNC(=O)OCc1ccccc1)NS(=O)(=O)c1ccc(-c2ccc(Cl)cc2)cc1 [Example 17]
6 | 6 | 2 | 179 | O=C(O)[C@H](CCCN1C(=O)c2ccccc2C1=O)NS(=O)(=O)c1ccc(-c2ccc(Cl)cc2)cc1 [Example 32]
7 | – | – | 176 | O=C(O)C(CCN1C(=O)c2ccccc2C1=O)NS(=O)(=O)c1ccc(-c2ccccc2)cc1 (racemic) [Example 27]
8 | – | – | 181 | O=C(O)C(CCCCN1C(=O)c2ccccc2C1=O)NS(=O)(=O)c1ccc(-c2ccccc2)cc1 (racemic) [Example 33]
9 | 40 | 6 | 167 | O=C(O)[C@H](CCN1C(=O)c2ccccc2C1=O)NS(=O)(=O)c1ccc(-c2ccccc2)cc1 [Example 28]
10 | 6 | 3 | 238 | O=C(O)C(CCN1C(=O)c2ccccc2C1=O)NS(=O)(=O)c1ccc(-c2ccc(Cl)cc2)cc1 (racemic) [Example 29]
11 | 40 | 10 | – | O=C(NCCC[C@H](NS(=O)(=O)c1ccc(-c2ccc(Cl)cc2)cc1)C(=O)O)c1ccc(OC(F)(F)F)cc1 [Example 105]
12 | 90 | 20 | – | Cc1oncc1C(=O)NCCCC[C@@H](NS(=O)(=O)c1ccc(-c2ccc(Cl)cc2)cc1)C(=O)O [Example 4, 4-Chlorobiphenylsulfonyl-N-epsilon-(5-methylisoxazol-4-carbonyl)-Lys-OH]
13 | 5 | 2 | – | O=C(NCCC[C@H](NS(=O)(=O)c1ccc(-c2ccc(Cl)cc2)cc1)C(=O)O)C1CC1 [Example 62]
14 | 5 | 2 | – | O=C(NCCC[C@H](NS(=O)(=O)c1ccc(-c2ccc(Cl)cc2)cc1)C(=O)O)c1ccco1 [Example 99]
15 | 30 | 10 | – | Cc1cc(C(=O)NCCC[C@H](NS(=O)(=O)c2ccc(-c3ccc(Cl)cc3)cc2)C(=O)O)ccc1[N+](=O)[O-] [Example 138]
16 | 7 | 3 | – | O=C(NCCC[C@H](NS(=O)(=O)c1ccc(-c2ccc(Cl)cc2)cc1)C(=O)O)c1ccccc1Cl [Example 83]
17 | 5 | 2 | – | O=C(NCCC[C@@H](NS(=O)(=O)c1ccc(-c2ccc(Cl)cc2)cc1)C(=O)O)C1CC1 [Example 41]
18 | 5 | 2 | – | O=C(O)[C@H](CCCN1C(=O)c2ccccc2S1(=O)=O)NS(=O)(=O)c1ccc(-c2ccc(Cl)cc2)cc1 [Example 134]
19 | 20 | 5 | – | O=C(/C=C/c1ccc(F)cc1)NCCC[C@H](NS(=O)(=O)c1ccc(-c2ccc(Cl)cc2)cc1)C(=O)O [Example 131]
20 | 60 | 20 | – | COc1cc(Cl)cc(C(=O)NCCC[C@H](NS(=O)(=O)c2ccc(-c3ccc(Cl)cc3)cc2)C(=O)O)c1 [Example 156]
21 | 10 | 2 | – | C[C@@H]1NC(=O)N(CCC[C@H](NS(=O)(=O)c2ccc(-c3ccc(Cl)cc3)cc2)C(=O)O)C1=O [Example 77]
22 | 50 | 20 | – | COc1cccc(OC)c1C(=O)NCCC[C@H](NS(=O)(=O)c1ccc(-c2ccc(Cl)cc2)cc1)C(=O)O [Example 139]
23 | 30 | 10 | – | O=C(Cc1ccc(Cl)cc1)NCCC[C@H](NS(=O)(=O)c1ccc(-c2ccc(Cl)cc2)cc1)C(=O)O [Example 89]
24 | 20 | 5 | – | N#Cc1ccc(C(=O)NCCC[C@H](NS(=O)(=O)c2ccc(-c3ccc(Cl)cc3)cc2)C(=O)O)cc1 [Example 85]
25 | 10 | 3 | – | CC(C)(C)CC(=O)NCCC[C@@H](NS(=O)(=O)c1ccc(-c2ccc(Cl)cc2)cc1)C(=O)O [Example 46]

Row | IC50 (stromelysin (MMP-3)) [nM] | IC50 [1] [nM] | melting point [°C] | SMILES
26 | 40 | 20 | – | O=C(NCCC[C@H](NS(=O)(=O)c1ccc(-c2ccc(Cl)cc2)cc1)C(=O)O)c1ccc2ccccc2c1 [Example 110]
27 | 4 | 2 | 213 to 215 | O=C(O)[C@H](CCCN1Cc2ccccc2C1=O)NS(=O)(=O)c1ccc(-c2ccc(Cl)cc2)cc1 [Example 34]
28 | 30 | 10 | – | O=C(/C=C/c1ccc(Cl)cc1)NCCC[C@H](NS(=O)(=O)c1ccc(-c2ccc(Cl)cc2)cc1)C(=O)O [Example 132]
29 | 5 | 2 | – | O=C(O)[C@H](CCCNC(=O)N1CCOCC1)NS(=O)(=O)c1ccc(-c2ccc(Cl)cc2)cc1 [Example 128]
30 | 5 | 3 | – | O=C(O)[C@H](CCCN(Cc1ccccc1)C(=O)C1CC1)NS(=O)(=O)c1ccc(-c2ccc(Cl)cc2)cc1 [Example 113]
31 | 10 | 4 | – | CC(C)COC(=O)NCCC[C@H](NS(=O)(=O)c1ccc(-c2ccc(Cl)cc2)cc1)C(=O)O [Example 118]
32 | 20 | 4 | – | O=C(NCCC[C@H](NS(=O)(=O)c1ccc(-c2ccc(Cl)cc2)cc1)C(=O)O)c1cccc(F)c1 [Example 95]
33 | 80 | 80 | – | Cc1ccc(S(=O)(=O)NC(=N)NCCC[C@@H](NS(=O)(=O)c2ccc(-c3ccc(Cl)cc3)cc2)C(=O)O)cc1 [Example 22]
34 | 20 | 7 | – | O=C(NCCC[C@H](NS(=O)(=O)c1ccc(-c2ccc(Cl)cc2)cc1)C(=O)O)c1ccc(C(F)(F)F)cc1F [Example 109]
35 | – | – | 131 to 133 | CC(C)(C)OC(=O)NCCC[C@H](NS(=O)(=O)c1ccc(Oc2ccc(Cl)cc2)cc1)C(=O)O [Example 172]
36 | 10 | 3 | – | O=C(NCCC[C@H](NS(=O)(=O)c1ccc(-c2ccc(Cl)cc2)cc1)C(=O)O)c1ccccc1O [Example 74]
37 | 40 | 7 | – | Cc1oncc1C(=O)NCCC[C@@H](NS(=O)(=O)c1ccc(-c2ccc(Cl)cc2)cc1)C(=O)O [Example 20]
38 | 20 | 3 | – | CC(C)(C)CC(=O)NCCC[C@H](NS(=O)(=O)c1ccc(-c2ccc(Cl)cc2)cc1)C(=O)O [Example 49]
39 | 40 | 40 | – | O=C(O)c1ccccc1S(=O)(=O)NCCC[C@H](NS(=O)(=O)c1ccc(-c2ccc(Cl)cc2)cc1)C(=O)O [Example 76]
40 | 20 | 6 | – | O=C(NCCC[C@H](NS(=O)(=O)c1ccc(-c2ccc(Cl)cc2)cc1)C(=O)O)c1ccc(C(F)(F)F)cc1 [Example 72]
41 | 20 | 3 | – | O=C(NCCC[C@H](NS(=O)(=O)c1ccc(-c2ccc(Cl)cc2)cc1)C(=O)O)c1cccnc1 [Example 51]
42 | 5 | 2 | 132 | O=C(O)C(CCCN1C(=O)c2ccccc2C1=O)NS(=O)(=O)c1ccc(-c2ccc(Cl)cc2)cc1 (racemic) [Example 31]
43 | – | – | 223 to 225 | O=C(O)[C@H](CCCN1Cc2ccccc2C1=O)NS(=O)(=O)c1ccc(Oc2ccc(Cl)cc2)cc1 [Example 68]
44 | 60 | 30 | – | CCCCOc1ccc(C(=O)NCCC[C@H](NS(=O)(=O)c2ccc(-c3ccc(Cl)cc3)cc2)C(=O)O)cc1 [Example 106]
45 | 40 | 20 | – | Cc1oncc1C(=O)NCCCC[C@@H](NS(=O)(=O)CCc1ccc(-c2ccccc2)cc1)C(=O)O [Example 168]
46 | 30 | 8 | – | N#Cc1ccccc1C(=O)NCCC[C@H](NS(=O)(=O)c1ccc(-c2ccc(Cl)cc2)cc1)C(=O)O [Example 135]
47 | 60 | 20 | – | O=C(/C=C/C1C=NC=N1)NCCC[C@H](NS(=O)(=O)c1ccc(-c2ccc(Cl)cc2)cc1)C(=O)O (stereo partly shown) [Example 140]
48 | 30 | 5 | – | NC(=O)NCCCC[C@H](NS(=O)(=O)c1ccc(-c2ccc(Cl)cc2)cc1)C(=O)O [Example 24]
49 | 20 | 4 | – | O=C(NCCC[C@H](NS(=O)(=O)c1ccc(-c2ccc(Cl)cc2)cc1)C(=O)O)C1CSCN1 (stereo partly shown) [Example 84]
